In ChEMBL document CHEMBL1128994, “Carboxylic acid bioisosteres of -linked dipeptide analogues of the folate-based thymidylate synthase (TS) inhibitor, 2-desamino-2-methyl-N10-propargyl-5,8-dideazafolic acid (ICI 198583)” (Bioorg Med Chem Lett, 1996) one finds IC50 data, which are given here for five compounds.

By IC50 is commonly meant the concentration that inhibits the measured activity by half.

Molecules are shown by their SMILES.

For test [1], the target named is T1, Thymidylate synthase (Mus musculus, UniProt P07607). Put plainly: Compound was evaluated for the inhibition of Thymidylate synthase in experiment 1.
T1 sequence (P07607 whole entry): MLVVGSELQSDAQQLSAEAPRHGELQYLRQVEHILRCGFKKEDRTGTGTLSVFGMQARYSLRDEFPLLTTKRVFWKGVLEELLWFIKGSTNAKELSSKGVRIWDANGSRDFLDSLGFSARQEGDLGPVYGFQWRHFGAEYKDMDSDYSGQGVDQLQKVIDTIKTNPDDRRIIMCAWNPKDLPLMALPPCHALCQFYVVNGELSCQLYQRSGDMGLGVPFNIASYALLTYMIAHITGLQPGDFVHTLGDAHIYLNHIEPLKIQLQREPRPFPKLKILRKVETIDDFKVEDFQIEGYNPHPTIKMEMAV
A further test deals with L1210 (1565). Put plainly: Compound was evaluated for the growth inhibition of […]. It counts as functional, cell-based.
Test [2] deals with L1210. The test is described as follows: Compound was evaluated for the growth inhibition of mouse L1210 cells in experiment 2. Format: functional, cell-based.
Test [3] deals with L1210. Put plainly: Compound was evaluated for the growth inhibition of mouse L1210 cells in experiment 1. Format: functional, cell-based.
Test [4] concerns L1210. The test is described as follows: Compound was evaluated for the growth inhibition of mouse L1210 (impaired) cells. Format: functional, cell-based.
In test [5] the target is T1, Thymidylate synthase. Put plainly: Compound was evaluated for the inhibition of Thymidylate synthase in experiment 2.
Test [6] concerns L1210. Put plainly: Compound was evaluated for the growth inhibition of mouse L1210 cells. Format: functional, cell-based.
Test [7] addresses T1, Thymidylate synthase. The test is described as follows: Compound was evaluated for the inhibition of Thymidylate synthase.

For `C#CCN(Cc1cc2c(O)nc(C)nc2cc1C)c1ccc(C(=O)N[C@@H](CCC(=O)N[C@@H](CCc2nnn[nH]2)C(=O)O)C(=O)O)c(F)c1`, the IC50 against Thymidylate synthase [1] was 0.82 nM; with L1210 (1565), 7400 nM; in the test on L1210 [2], 750 nM; with L1210 [3], 1500 nM; with L1210 [4], 8000 nM; against Thymidylate synthase [5], 1.86 nM.

Consider `C#CCN(Cc1ccc2nc(C)nc(O)c2c1)c1ccc(C(=O)N[C@@H](CCC(=O)N[C@H](CCC(=O)O)C(=O)O)C(=O)O)cc1`, for which the IC50 in the test with L1210 [6] (Mus musculus, L1210) is 330 nM; in the test on L1210 (1565), 16000 nM; in the test on L1210 [4], 15000 nM.

Take `C#CCN(Cc1cc2c(=O)[nH]c(C)nc2cc1C)c1ccc(C(=O)N[C@@H](CCC(=O)NC(CCC(=O)O)C(=O)O)C(=O)O)c(F)c1` (stereo in doubt): the IC50 in the test with L1210 [6] (Mus musculus, L1210) came out at 200 nM; against Thymidylate synthase [1], 0.4 nM; in the test with L1210 (1565), 8700 nM; in the test on L1210 [4], 6800 nM; against Thymidylate synthase [5] it was 0.92 nM.

`C#CCN(Cc1ccc2nc(C)[nH]c(=O)c2c1)c1ccc(C(=O)N[C@@H](CCC(=O)N[C@@H](CCc2nnn[nH]2)C(=O)O)C(=O)O)cc1`: the IC50 against Thymidylate synthase [1] stood at 6 nM; in the test on L1210 (1565) it was 41000 nM; in the test with L1210 [2], 4900 nM; in the test with L1210 [3], 6200 nM; with L1210 [4] it was 44000 nM; on Thymidylate synthase [5], 4 nM.

For the compound `C#CCN(Cc1cc2c(O)nc(C)nc2cc1C)c1ccc(C(=O)N[C@@H](CCC(=O)N[C@@H](C)c2nnn[nH]2)C(=O)O)c(F)c1`, the IC50 with L1210 [6] (Mus musculus, L1210) came out at 350 nM; in the test with L1210 [6] (l1210), 260 nM; against Thymidylate synthase [7] it was 1 nM; with L1210 (1565), 1000 nM; in the test on L1210 [4], 2000 nM.
